In patent US20040191842A1, “Chemopreventive and therapeutic aspects of polyphenolic compositions and assays” (Medical College of Georgia Research Institute, Inc., priority 2002, published 2004):
“Also recorded” adds a separate entry of the source.

Key:
[1] = test system: normal human mammary epithelial cells (HMEC); assay: Morphology of mammary epithelial cells; format: cell-based; conditions: 50 μM EGCG
Description: Cell lines and cell culture. The normal human keratinocytes (NHEK CC-2507) were purchased from Cambrex (East Rutherford, N.J.) and maintained in KGM-2 medium (Cambrex). The OSC2 cell line was previously described in Example 1. The OSC2 subclones were established by retroviral transfection of the parental OSC2 cell line. These clones were maintained in 45% Dulbecco's Modified Eagle's Medium (DMEM), 45% Ham's F12 medium and 10% fetal calf serum, 100 I.U/ml penicillin, 100 μg/ml streptomycin and 5 μg/ml hydrocortisone. The normal human mammary epithelial cells (HMEC) were maintained in MEGM medium (Cambrex). All cell cultures were maintained in a 37° C. incubator with 5% CO2. Light photographs were taken with a SPOT RT digital camera system (Diagnostic Instruments, Sterling Heights, Mich.) linked to a Nikon Phase Contrast-2 microscope at an original magnification of 400×. Fluorescent photomicrographs were taken with a SPOT color digital camera system using the ZEISS Axiovert 10. Fluorescence was generated by a ZEISS AttoArc 2 source with an original magnification of 400×. Experiments were repeated three times.

MCF7 cells = assay: MTT assay (mitochondrial SDH activity), MCF7 cells; format: cell-based, human; conditions: 50 μM EGCG
Description: MTT (3-(4,5-dimethylthiazol-2-yl)-2,5-diphenyl tetrazolium bromide) assay. This method detects the activity of mitochondrial succinate dehydrogenase (SDH). In a 96-well plate, 1.5×10^4 cells were seeded in each well. After variety of treatments, 100 μl of 2% MTT was added to each well and the plate was incubated at 37° C. for 30 minutes. 100 μl of 0.2 M Tris (pH 7.7) with 4% formalin was added to each well. After incubation at room temperature for 5 minutes, liquid was removed and the wells were allowed to dry. Each well was rinsed with 200 μl water followed by addition of 100 μl DMSO (6.35% 0.1 N NaOH in DMSO) to each well. The coloration was measured by a Thermo MAX microplate reader (Molecular Devices Corp. Sunnyvale, Calif. using wavelengths of 562 nm. Experiments were repeated three times with triplicate samples for each experiment.

NHEK = assay: Intracellular ROS levels (DFDA assay), NHEK; format: cell-based, human; conditions: EGCG 15-200 μM, up to 120 minutes
Description: (§1) Measurement of intracellular ROS levels. The ROS assay measures the accumulation of intracellular ROS levels. The non-fluorescent dye DFDA passively diffuses into cells, where the acetates are cleaved by intracellular esterases. […] Thus, values of the fluorescence in the cell cultures are constantly rising in this assay. […] The intracellular ROS levels were measured by using a fluorescence plate reader (BIO-TEK FL600, Bio-Tek Instruments, Inc., Winooski, Vt.), at an excitation wavelength of 485 nm and an emission wavelength of 530 nm.

NS-SV-AC cells = assay: Intracellular ROS levels (DFDA assay), NS-SV-AC cells; format: cell-based, human; conditions: EGCG 15-200 μM, 60 minutes
Description: as §1

OSC-4 cells = assay: BrdU incorporation assay, OSC-4 cells; format: cell-based, human; conditions: for DNA synthesis (BrdU assay): 24 hours
Description: (§2) DNA synthesis assay. DNA synthesis was analyzed by a BrdU Cell Proliferation Assay Kit (Oncogene Research Products, Boston, Mass.). […] After the treatment, cells were labeled with BrdU for 2 hours at 37° C. and reacted with anti-BrdU antibody. Unbound antibody in each well was removed by rinsing, and horseradish peroxidase-conjugated goat anti-mouse antibody was added to each well. The color reaction was visualized according to the protocol provided by the manufacturer.
as §2, with “cell proliferation assay kit” for “Cell Proliferation Assay Kit”, “anti-mouse IgG” for “anti-mouse”, “reaction to visualize the secondary antibody” for “reaction”, “carried out” for “visualized”

OSC-GFP cells and NHEK = assay: Co-culture of OSC-GFP cells and NHEK, double fluorescence; format: cell-based, human; conditions: overlay co-culture, 100 μM EGCG, 24 hour
Description: Co-culture and GTPP treatment. Various patterns of co-culture of the tumor/normal cells were achieved by different designs. Examples include:
1. Adjacent co-culture design. OSC-GFP cells (5×10^4) were seeded in the center of a culturing device (8-well chamber-slide, Nagle Nunc International, Naperville, Ill.) through a cloning cylinder (Fisher Scientific/Scienceware, Tapered Design, 4.7×8 mm) in DMEM/F12 medium and allowed to attach for 24 hours. NHEK (10^5) in KGM-2 were then seeded in the area next to the cylinder. After 24 hours, the cylinder was removed and the medium was replaced by a 50/50 mix of KGM-2 and DMEM/F12 and the cells were allowed to grow for another 24 hours prior to treatment (FIG. 21, right).
2. Overlay design, which could be adapted for high throughput screening in 96 well plate. […]
4. Tumor cell migration was monitored by co-culturing OSC-GFP and NHEK in wells of a 24 well plate as indicated in “1”, except the NHEK cell number was doubled. After treatment, tumor cell migration into NHEK territory was recorded by fluorescent microscopy at selected time points. […]
Immunofluorescence and photography. […] Fluorescence was generated by a ZEISS AttoArc 2 source. […]
The total fluorescence intensities of images were quantified using the BIOQUANT NOVA PRIME 6.0 software (Bioquant Co., Nashville, Tenn.). […]

For `O=C(O[C@@H]1Cc2c(O)cc(O)cc2O[C@@H]1c1cc(O)c(O)c(O)c1)c1cc(O)c(O)c(O)c1` [EGCG, (−)-epigallocatechin-3-gallate], the morphology ([1]; 24 hours) was “little change in morphology”, the cell death ([1]; 48 hours) was “Significant cell death was observed” and the “mitochondrial SDH activities” value (MCF7 cells) was “significantly decreased”. The “intracellular ROS levels” value (NHEK) was “significantly reduced immediately after the addition of EGCG; also recorded: reduce ROS to background levels”, the “intracellular ROS levels” value (NS-SV-AC cells) was “inhibit ROS production at background levels; also recorded: reduced the ROS to background levels” and the “DNA synthesis (BrdU assay)” value (OSC-4 cells; 50 μM EGCG) was “did not show significant changes”. The “BrdU incorporation, of control levels” value (OSC-4 cells; 200 μM EGCG) was “approximately 75%”, the “reduction of BrdU incorporation” value (OSC-4 cells; 200 μM EGCG, 24-hour period) was “approximately 25%” and the “DNA synthesis (BrdU assay)” value (OSC-4 cells; 200 μM EGCG) was “significantly reduced SDH activity and DNA synthesis”. The “ratio of fluorescence intensities of rhodamine (red)/FITC (green)” value (OSC-GFP cells and NHEK) was 1.23.
